Data published in patent US20030040510A1, “Selective estrogen receptor modulators in combination with estrogens” (Endorecherche, Inc., priority 2000, published 2003).
“Also recorded” adds a separate entry of the source.

Tests used:
human Ishikawa cells = test: Alkaline phosphatase activity in human endometrial adenocarcinoma Ishikawa cells; format: cell-based; conditions: 5 days
Protocol: The human Ishikawa cell line derived from a well differentiated endometrial adenocarcinoma was kindly provided by Dr. Erlio Gurpide, The Mount Sinai Medical Center, New York, N.Y. The Ishikawa cells were routinely maintained in Eagle's Minimum Essential Medium (MEM) containing 5% (vol/vol) FBS (Fetal Bovine Serum) and supplemented with 100 U/ml penicillin, 100 μg/ml streptomycin, 0.1 mM non-essential amino acids solution. Cells were plated in Falcon T75 flasks at a density of 1.5×10^6 cells at 37° C.
Twenty four hours before the start of the experiment, the medium of near confluent Ishikawa cells was replaced by fresh estrogen-free basal medium (EFBM) consisting of a 1:1 (v:v) mixture of phenol red-free Ham's F-12 and Dulbecco's Modified Eagle's Medium (DMEM) supplemented with 100 U/mL penicillin, 100 μg/mL streptomycin, 2 mM glutamine, and 5% FBS treated twice with dextran-coated charcoal to remove endogenous steroids. Cells were then harvested by 0.1% pancreatin (Sigma) and 0.25 mM HEPES, resuspended in EFBM and plated in Falcon 96, well flat-bottomed microtiter plates at a density of 2.2×10^4 cells/well in a volume of 100 μl and allowed to adhere to the surface of the plates for 24 h. Thereafter, medium was replaced with fresh EFBM containing the indicated concentrations of compounds in a final volume of 200 μl. Cells were incubated for five days, with a medium change after 48 h.
At the end of the incubation period, microtiter plates were inverted and growth medium was decanted. The plates were rinsed with 200 μl by well of PBS (0.15M NaCl, 10 mM sodium phosphate, pH 7.4). PBS was then removed from the plates while carefully leaving some residual PBS, and the wash procedure was repeated once. The buffered saline was then decanted, and the inverted plates were blotted gently on a paper towel. Following replacement of the covers, the plates were placed at −80° C. for 15 min followed by thawing at room temperature for 10 min. […] Plates were monitored at 405 nm in an enzyme-linked immunosorbent assay plate reader (BIO-RAD, model 2550 EIA Reader).

[1] = tested on: human breast cancer ZR-75-1 xenografts; test: Tamoxifen-stimulated growth of ZR-75-1 xenografts in nude mice with or without EM-652.HCl (FIG. 9); format: in vivo
[2] = tested on: breast and endometrial tissues; test: Antiestrogens tested for SERM function and estrogenic activity in breast and endometrium

## CC1=C(c2ccc(O)cc2)[C@H](c2ccc(OCCN3CCCCC3)cc2)Oc2cc(O)ccc21.Cl [EM-652.HCl, (S)-(+)-7-hydroxy-3-(4′-hydroxyphenyl)-4-methyl-2-(4″-(2′″-piperidinoethoxy)phenyl)-2H-1-benzopyran hydrochloride]
Human Ishikawa cells; 1 nM E2
  Maximal inhibition of 1 nM E2-induced stimulation of alkaline phosphatase: 98.97 ± 0.174 (18)
Human Ishikawa cells; Homo sapiens, 120 h, 1 nM E2, read-out: Inhibition of 1 nM E2-induced stimulation of alkaline phosphatase IC50
  IC50: 1.52 ± 0.22 nM
Human Ishikawa cells; Homo sapiens, 120 h, read-out: Maximal stimulation of alkaline phosphatase, % of 1 nM E2 stimulation
  Emax: 1.88 ± 0.26%
[1]; EM-652.HCl by itself, hydrochloride
  Effect on tumor growth in the absence of Tamoxifen: has no effect on tumor growth; also recorded: did not exert any stimulatory effect
[1]; simultaneous treatment with Tamoxifen
  Effect on the stimulatory effect of Tamoxifen on tumor growth: completely blocked
[2]
  Function as SERM: found to function as SERMs
[2]; physiological or pharmacological concentrations
  Estrogenic activity in breast and endometrial tissues: do not have any estrogenic activity
